In US11472791B2 (Incyte Corporation, priority 2019, dated 2022):
One block for each molecule: values may come before it.

Assays:
[1] = test system: Rb phosphorylated on serine 780 in CCNE1 amplified COV318 cells; test: CDK2 pRb (S780) HTRF cellular assay; format: cell-based; conditions: Homo sapiens, read-out: IC50 in p-RB S780 HTRF cellular assay
[2] = test system: COV318 cells; test: Cell cycle analysis by FACS after p16 knockdown; format: cell-based, human; conditions: 100 nM, 16 hours
Method: To confirm the role of p16 in CDK2-sensitivity of CCNE1-amplified cells, COV318 cells were treated with control or p16-specific siRNA.
(§1) Bulk DNA was stained with DAPI. Compound-treated and DMSO treated control cells were acquired with CytoFlex (Beckman Coulter) and were analyzed using the FlowJo software. For cell cycle analysis of cells with siRNA knockdown, 72 hours after siRNA transfection, cells exposed to 10 μM EdU for 3 hours before detection of Click-iT Alexa Fluor® 647 azide kit.

[3] = biological target: CDK2/Cyclin E1 (Homo sapiens (Human), UniProt P24941); test: CDK2/Cyclin E1 HTRF enzyme activity assay; format: biochemical; conditions: 1 mM ATP
Method: Assays are conducted in white 384-well polystyrene plates in a final reaction volume of 8 μL. […] HTRF signals are read after 1 hour at room temperature on a PHERAstar FS plate reader (BMG Labtech). Data is analyzed with IDBS XLFit and GraphPad Prism 5.0 software using a three or four parameter dose response curve to determine IC50 for each compound.

[4] = biological target: human JAK1 (Homo sapiens, UniProt P23458); test: JAK inhibitory activity assay (JAK1); format: biochemical; conditions: 1 mM ATP
Method: (§2) Compounds herein were tested for inhibitory activity of JAK targets according to the following in vitro assay described in Park et al., Analytical Biochemistry 1999, 269, 94-104. The catalytic domains of human JAK1 (a.a. 837-1142), Jak2 (a.a. 828-1132) and Jak3 (a.a. 781-1124) with an N-terminal His tag were expressed using baculovirus in insect cells and purified. The catalytic activity of JAK1 and JAK2 was assayed by measuring the phosphorylation of a biotinylated peptide. The phosphorylated peptide was detected by homogenous time resolved fluorescence (HTRF). Each enzyme reaction was carried out with or without test compound (11-point dilution), JAK enzyme, 500 nM peptide, adenosine triphosphate (ATP; 1 mM), and 2.0% dimethyl sulfoxide (DMSO) in assay buffer (50 mM Tris (pH 7.8) buffer, 100 mM NaCl, 5 mM DTT, and 0.1 mg/mL (0.01%) BSA). The peptide substrate (Biotin-[…]) was custom synthesized by Biosource International. Reactions were carried out at room temperature for 1 hour and then stopped with 10 μL 45 mM EDTA, 200 nM SA-APC, 4 nM Eu-Py20 in assay buffer (Perkin Elmer, Boston, Mass.). After incubation for 30 minutes at room temperature, the HTRF signal was measured on a PheraStar plate reader.

[5] = biological target: JAK2 (Homo sapiens (Human), UniProt O60674); test: JAK inhibitory activity assay (JAK2); format: biochemical; conditions: 1 mM ATP
Sequence of JAK2 (O60674 828-1132): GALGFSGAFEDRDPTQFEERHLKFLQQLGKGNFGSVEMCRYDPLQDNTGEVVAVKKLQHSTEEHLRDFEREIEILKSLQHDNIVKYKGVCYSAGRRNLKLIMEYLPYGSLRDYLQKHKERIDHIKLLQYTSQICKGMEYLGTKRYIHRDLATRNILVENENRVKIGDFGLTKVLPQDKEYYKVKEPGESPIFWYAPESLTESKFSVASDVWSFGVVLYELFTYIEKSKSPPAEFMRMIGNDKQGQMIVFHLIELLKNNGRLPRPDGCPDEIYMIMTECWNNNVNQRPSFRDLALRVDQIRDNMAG
Method: as §2

[6] = test system: CCNE1-non-amplified cell lines (COV504, OV56, and Igrov1); test: Cell cycle analysis by FACS, CCNE1-non-amplified cell lines; format: cell-based, human; conditions: for inhibition of proliferation: CCNE1-non-amplified COV504 cells, 16 hours, increasing concentrations, vs DMSO; for percentage of cells at the S phase: COV504, OV56, Igrov1, 16 hours after treatment, compared to DMSO
Method: (§3) The effect of CDK4/6-inhibition in CCNE1-amplified versus CCNE1-non-amplified cell lines was evaluated.
(§4) A similar experiment was performed in a larger set of CCNE1-amplified cell lines (COV318 and OVCAR3) and CCNE1-non-amplified cell lines (COV504, OV56, and Igrov1) (FIG. 6).
as §1

[7] = test system: CCNE1-amplified cell lines (COV318 and OVCAR3); test: Cell cycle analysis by FACS, CCNE1-amplified cell lines; format: cell-based, human; conditions: for inhibition of proliferation: CCNE1-amplified OVCAR3 cells, 16 hours, increasing concentrations, vs DMSO
Method: as §3, §4, §1

[8] = test system: Rb phosphorylation at S780 in CCNE1-non-amplified cell lines (COV504 and OV56); test: Western blot of Rb phosphorylation at S780, CCNE1-non-amplified cell lines; format: cell-based, human; conditions: COV504 and OV56, various doses, 1 or 15 hours
Method: (§5) The effect of CDK4/6-inhibition on Rb phosphorylation at S780 in CCNE1-amplified versus CCNE1-non-amplified cell lines was evaluated. […] One or 15 hours after treatment, the cells were harvested and total protein was extracted and analyzed by western blot (FIG. 8).
(§6) Whole cell extracts were prepared using RIPA buffer (Thermo Scientific, 89900) with a Halt Protease and Phosphatase Inhibitor Cocktail (Thermo Scientific, 78440). Protein concentration was quantified with a BCA Protein Assay Kit (Thermo Scientific, 23225) and 40 μg of protein lysates were loaded for SDS-PAGE using precast gradient gels (Bio-Rad, Hercules, No. 456-1094). Samples were diluted in 5× Laemmli buffer (300 mM Tris-HCl pH 6.8, 10% SDS (w/v), 5% 2-mercaptoethanol, 25% glycerol (v/v), 0.1% bromophenol blue w/v) and boiled for 5 minutes. 35 μg of proteins were separated by 8-15% SDS-PAGE and transferred onto polyvinylidene fluoride (PVDF) membranes. Unspecific binding sites on the PVDF membranes were blocked with 5% non-fat milk in TEST (20 mM Tris-HCl, pH 7.6, 137 mM NaCl, 1% Tween-20). […] Images were captured by Luminescence/Fluorescence Imaging System Odyssey CLx Imager (LI-COR).

[9] = test system: Rb phosphorylation at S780 in CCNE1-amplified cell lines (OVCAR3 and COV318); test: Western blot of Rb phosphorylation at S780, CCNE1-amplified cell lines; format: cell-based, human; conditions: OVCAR3 and COV318, various doses, 1 or 15 hours; listed as Palbociclib
Method: as §5, §6

SMILES: C[C@@]1(O)CCC[C@H]1n1c(=O)ccc2cnc(NC3CCN(S(C)(=O)=O)CC3)nc21 [Compound A, 8-((1R,2R)-2-hydroxy-2-methylcyclopentyl)-2-((1-(methylsulfonyl)piperidin-4-yl)amino)pyrido[2,3-d]pyrimidin-7(8H)-one]
- IC50 [1]: 0.037 µM
- percentage of S phase cells ([2]; control siRNA-treated COV318 cells): significantly decreased
- percentage of S phase cells ([2]; p16 knocked down COV318 cells, compared to DMSO): not significantly decreased

SMILES: CN1CCN(Cc2ccc(-n3cc(-c4nc(NC5CCN(S(C)(=O)=O)CC5)ncc4C#N)cn3)c(Cl)c2)CC1 [Example 99, 4-(1-(2-Chloro-4-((4-methylpiperazin-1-yl)methyl)phenyl)-1H-pyrazol-4-yl)-2-((1-(methylsulfonyl)piperidin-4-yl)amino)pyrimidine-5-carbonitrile]
- IC50 [3]: < 0.05 µM
- IC50 [4]: ≥ 10 µM
- IC50 [5]: ≥ 10 µM

SMILES: CC(=O)c1c(C)c2cnc(Nc3ccc(N4CCNCC4)cn3)nc2n(C2CCCC2)c1=O [palbociclib]
- IC50 [1]: > 3 µM
- inhibition of proliferation [6]: dose-dependent inhibition of the proliferation
- inhibition of proliferation ([6]; listed as Palbociclib): dose-dependent inhibition of proliferation
- percentage of cells at the S phase [6]: decreased in CCNE1-non-amplified cell lines in a dose-dependent fashion
- percentage of cells at the S phase ([6]; listed as Palbociclib): selectively inhibits proliferation
- inhibition of proliferation [7]: not in CCNE1-amplified cells
- inhibition of proliferation ([7]; listed as Palbociclib): not in amplified cell lines
- percentage of cells at the S phase ([7]; COV318 and OVCAR3, 16 hours after treatment, compared to DMSO): not significantly different
- Rb phosphorylation at S780 [8]: blocked Rb phosphorylation at S780
- Rb phosphorylation at S780 ([8]; listed as Palbociclib): blocks RB phosphorylation at S780
- Rb phosphorylation at S780 [9]: not in amplified ovarian cells

Further lines, results first:

- IC50 [3]: < 0.05 µM
- IC50 [4]: ≥ 10 µM
- IC50 [5]: ≥ 10 µM
SMILES: CC(C)(O)Cn1cc(-c2nc(NC3CCN(S(=O)(=O)C4CC4)CC3)ncc2C#N)cn1 [Example 54, 2-((1-(Cyclopropylsulfonyl)piperidin-4-yl)amino)-4-(1-(2-hydroxy-2-methylpropyl)-1H-pyrazol-4-yl)pyrimidine-5-carbonitrile]

- IC50 [3]: < 0.05 µM
- IC50 [4]: ≥ 10 µM
- IC50 [5]: ≥ 10 µM
SMILES: CC(C)(C(N)=O)n1cc(-c2nc(NC3CCN(S(=O)(=O)c4ccccn4)CC3)ncc2C(F)(F)F)cn1 [Example 96, 2-Methyl-2-(4-(2-((1-(pyridin-2-ylsulfonyl)piperidin-4-yl)amino)-5-(trifluoromethyl)pyrimidin-4-yl)-1H-pyrazol-1-yl)propanamide]
